Experimental data reported in patent US11925611B2, “Use of ZT-1A and analogs thereof to prevent and/or treat neurodegenerative and neurocognitive disorders” (United States Government as Represented by the Department …, priority 2021, dated 2024).

Columns and labels:
BCAS mice [1] = experiment: Ex-vivo MRI DTI analysis of white matter lesion in BCAS mice; design: species or system C57BL/6J mice; details: 4 wks post-BCAS, vs Veh-control
Text: Clinically, most patients with intracranial atherosclerotic stenosis suffer from permanent stenosis without occlusion. Therefore, to mimic clinical atherosclerotic stenosis with permanent carotid artery (CCA) hypoperfusion, a modified BCAS model was adapted by ligating the CCA guided with a 30 gauge needle (0.31 mm diameter) in the right CCA and a 33 gauge needle (0.21 mm diameter) in the left CCA with a 4-0 silk suture. […] Next, changes of total NKCC1 (tNKCC1) protein expression were surveyed in different brain regions at 2 and 4 wks post-surgery by immunofluorescence staining (IF). […] Therefore, in the rest of the study, the investigation was focused on its association to white matter GFAP^+ astrogliosis and lesion of CC and external capsul (EC) tracks. […] However, by 2 wks post-BCAS surgery, tNKCC1 immunofluorescence intensity in the CC tracks was increased by ˜3 folds (p<0.05), and further elevated to ˜6 folds by 4 wks (p<0.05, arrowhead). Data are mean±SEM, n=4, *p<0.05, **p<0.01. […] The upregulation of tNKCC1 and GFAP protein expression in the CC is correlated, with a Pearson's correlation coefficient of r=0.9 (p<0.001). […] In contrast, no elevated tNKCC1 protein was detected either in Iba1^+ microglia/macrophages or in Olig2+ oligodendrocytes (OL) at 4 wks post-BCAS surgery (FIG. 1D). Without wishing to be bound by theory, these findings indicate that upregulation of NKCC1 expression and activity in reactive astrocytes may play a critical role in white matter inflammation, OL death, and demyelination after BCAS. Next, whether administration of SPAK inhibitor ZT-1a reduces WML and improves cognitive functions was examined. Starting at 14 days after BCAS surgery in mice (male), either vehicle DMSO (Veh, 2 ml/kg) or ZT-1a (5 mg/kg, every 72 h, i.p) was administered every 3 days, until they were sacrificed at day 35 post-BCAS (FIG. 3A). […] Motor functions are similar in all groups and average swimming speeds were not different in the Sham-, Veh- and ZT-1a-treated mice. Data are mean±SEM, n=6 (Sham and ZT-1a) or 5 (Veh), *p<0.01 vs. sham, *p<0.05 vs. Veh. After completion of the neurological function tests in the Veh-control and ZT-1a-treated BCAS cohort mice (as shown in FIG. 3A and FIG. 3B), ex-vivo brains were harvested for MRI DTI (diffusion tensor imaging) analysis of WML at 4 wks post-BCAS detected by DTI. The fractional anisotropy (FA), radial diffusivity (RD), and mean diffusivity (MD) of the CC and EC tracks were analyzed. Representative images of the DEC maps in FIG. 4A show severe loss of axonal fibers (arrowheads) in the CC and left EC of the Veh-control brains. […] These observations are consistent with changes of FA, RD, and MD values (FIG. 4B). […] Then MBP expression levels were measured in these brains by immunostaining. […]

BCAS mice [2] = experiment: Morris water maze (MWM) test in modified BCAS mice; format: in vivo, C57BL/6J mice
Text: Clinically, most patients with intracranial atherosclerotic stenosis suffer from permanent stenosis without occlusion. Therefore, to mimic clinical atherosclerotic stenosis with permanent carotid artery (CCA) hypoperfusion, a modified BCAS model was adapted by ligating the CCA guided with a 30 gauge needle (0.31 mm diameter) in the right CCA and a 33 gauge needle (0.21 mm diameter) in the left CCA with a 4-0 silk suture. […] Next, changes of total NKCC1 (tNKCC1) protein expression were surveyed in different brain regions at 2 and 4 wks post-surgery by immunofluorescence staining (IF). […] Therefore, in the rest of the study, the investigation was focused on its association to white matter GFAP^+ astrogliosis and lesion of CC and external capsul (EC) tracks. […] However, by 2 wks post-BCAS surgery, tNKCC1 immunofluorescence intensity in the CC tracks was increased by ˜3 folds (p<0.05), and further elevated to ˜6 folds by 4 wks (p<0.05, arrowhead). Data are mean±SEM, n=4, *p<0.05, **p<0.01. […] The upregulation of tNKCC1 and GFAP protein expression in the CC is correlated, with a Pearson's correlation coefficient of r=0.9 (p<0.001). […] In contrast, no elevated tNKCC1 protein was detected either in Iba1^+ microglia/macrophages or in Olig2+ oligodendrocytes (OL) at 4 wks post-BCAS surgery (FIG. 1D). Without wishing to be bound by theory, these findings indicate that upregulation of NKCC1 expression and activity in reactive astrocytes may play a critical role in white matter inflammation, OL death, and demyelination after BCAS. Next, whether administration of SPAK inhibitor ZT-1a reduces WML and improves cognitive functions was examined. Starting at 14 days after BCAS surgery in mice (male), either vehicle DMSO (Veh, 2 ml/kg) or ZT-1a (5 mg/kg, every 72 h, i.p) was administered every 3 days, until they were sacrificed at day 35 post-BCAS (FIG. 3A). […] Motor functions are similar in all groups and average swimming speeds were not different in the Sham-, Veh- and ZT-1a-treated mice. Data are mean±SEM, n=6 (Sham and ZT-1a) or 5 (Veh), *p<0.01 vs. sham, *p<0.05 vs. Veh.

Coil BCAS mice = experiment: Coil BCAS model, delayed administration (NOR, MBP immunostaining, CBF, body weight); format: in vivo
Protocol: The efficacy of administration of ZT-1a starting at 4 wks post-BCAS surgery, when matter demyelination has reached its peak, was examined next. To test the reproducibility of these findings, in this pilot study, the Coil BCAS model was used by placing two microcoils (0.18 mm diameter) in each CCAs, a well-established model with CBF reduction and accompanied by ischemic lesion to white matter tracks, cortex, and hippocampus. Either vehicle DMSO (Veh, 2 ml/kg) or ZT-1a (5 mg/kg, every 72 h, i.p) was administered at 4-8 wks post-BCAS (i.e., during 28-56 days after coil-BCAS, every 3 days) (FIG. 7A). […] Then MBP expression levels were examined in these brains by immunostaining. […] Data are mean±SEM, n=5-8, *p<0.01 vs. sham, *p<0.05 vs. Veh.

Structure (SMILES): Cc1cc(C(C#N)c2ccc(Cl)cc2)c(Cl)cc1NC(=O)c1cc(Cl)ccc1O (centres unmarked) [1a (ZT-1a)]
- integrity of the CC and EC tracks (DEC maps) (BCAS mice [1]; 5 mg/kg i.p. every 72 h, both hemispheres): better-preserved integrity
- fractional anisotropy (FA) values (BCAS mice [1]; p<0.05): significantly higher
- mean diffusivity (MD) values (BCAS mice [1]; p<0.05): lower
- radial diffusivity (RD) values (BCAS mice [1]; p<0.05): lower
- escape latency in MWM test (BCAS mice [2]; 5 mg/kg i.p. every 72 h from day 14 after BCAS, 4 wks post-BCAS, vs Veh-treated BCAS mice): significantly less escape latency
- time in the target quadrant, spatial probe trial (BCAS mice [2]; 5 mg/kg i.p. every 72 h from day 14 after BCAS, mean±SEM, n=6, Veh 15.3±1.2 sec, p<0.05): 26.3 ± 4.3 s
- average swimming speeds (BCAS mice [2]; Sham-, Veh- and ZT-1a-treated mice compared): not different
- memory function in novel objective recognition test (NOR) (Coil BCAS mice; 5 mg/kg i.p. every 72 h at 4-8 wks post-BCAS): no memory function impairment
- body weight changes (Coil BCAS mice; 5 mg/kg i.p. every 72 h at 4-8 wks post-BCAS, data not shown): No body weight changes
- MBP levels in CC and EC tracts (Coil BCAS mice; delayed administration 4-8 wks post-BCAS, p<0.05): significantly increased
- cerebral blood flow (CBF) (Coil BCAS mice; delayed treatment for four weeks, by 8 wks post-BCAS): significantly improved
